Here are results for six compounds from patent US10100079B2, “Progesterone-cationic lipid hybrid as anticancer agent and the process of synthesis thereof” (Council of Scientific & Industrial Research, priority 2016, dated 2018).

The test system of one data set is B16F10. Nature of the data set: MTT cytotoxicity assay, B16F10. The data set is classed as cell-based, murine. Conditions: Mus musculus, B16-F10; MTT, 48 h continuous treatment; read-out: IC50 B16F10. The protocol:
(§1) All cells were grown into mycoplasma free condition. […] All cells were grown up to 75-85% confluency after which cells were trypsinized, counted and seeded, in 96-well plates for cell viability studies, 6-well plates for apoptosis studies, 60 mm dish for cell cycle studies and in 25 cm^2 or 75 cm^2 tissue culture flasks for Western blot studies. The primary stock of the cationic progesterone molecules were made in cell culture grade DMSO and from that secondary stock was prepared by serial dilution with cell culture grade DMSO. The final working concentrations were prepared by diluting the secondary stock in cell culture media keeping the DMSO concentration in working solution below 0.2% with respect to cell culture medium. […] For this assay, 12-18 h before treatment cells were plated in 96-well plate at 5000 cells/well density. […] After completion of the treatment, 10 μL of MTT solution (5 mg/mL) was added in each well and incubated for 4 h. Then the media was removed carefully, and the reduced MTT was dissolved in 1:1 (v/v) DMSO/Methanol and absorbance was measured using multimode reader (Synergy H1, BioTek). Results were represented as percentage of viability={[A550(treated cells)−background]/[A550(untreated cells)−background]}×100. The result was summarized and provided as IC50 table in Table 1.

The next data set relates to T47D. The data set is described as follows: MTT cytotoxicity assay, T47D. The data set is classed as cell-based. Conditions: Homo sapiens, MTT, 48 h continuous treatment, read-out: IC50 T47D. The protocol: as §1
(Tetrazolium assays rely on reduction of a dye to a coloured formazan, in cell work by metabolically active cells.)

Another data set deals with MCF7. Nature of the data set: MTT cytotoxicity assay, MCF7. The data set is classed as cell-based. The following applies: Homo sapiens, MCF7; MTT, 48 h continuous treatment; read-out: IC50 MCF7. How it is done:
as §1

A further data set has as its system NIH-3T3. Nature of the data set: MTT cytotoxicity assay, NIH-3T3. The data set is classed as cell-based, murine. The following applies: Mus musculus, NIH3T3; MTT, 48 h continuous treatment, non-cancer cell; read-out: IC50 NIH-3T3. The protocol:
as §1

A further data set relates to OVCAR-3. Nature of the data set: MTT cytotoxicity assay, OVCAR-3. The following applies: Homo sapiens, OVCAR-3; MTT, 48 h continuous treatment; read-out: IC50 OVCAR-3. The data set is classed as cell-based. How it is done:
as §1

The test system of a further data set is COS-1. Nature of the data set: MTT cytotoxicity assay, COS-1. The data set is classed as cell-based. The following applies: Chlorocebus aethiops, COS-1; MTT, 48 h continuous treatment, non-cancer cell; read-out: IC50 COS-1. The protocol:
as §1

A further data set concerns CHO. Nature of the data set: MTT cytotoxicity assay, CHO. Conditions: Cricetulus griseus, MTT, 48 h continuous treatment, non-cancer cell, read-out: IC50 CHO. The data set is classed as cell-based, Chinese hamster. How it is done:
as §1

In a further data set the test system is MDA-MB-231. The data set is described as follows: MTT cytotoxicity assay, MDA-MB-231. The data set is classed as cell-based, human. The following applies: Homo sapiens, MDA-MB-231; MTT, 48 h continuous treatment; read-out: IC50 MDA-MB-231. The protocol: as §1
The subject of data set [1] is non-cancer cells CHO, COS-1 and NIH-3T3. Nature of the data set: MTT viability, tested non-cancer cells (combination treatment study, FIG. 1B). The data set is classed as cell-based. The following applies: 48 h, 2.5 μM-40 μM. How it is done: FIG. 1B: The viability studies of non-cancer cells CHO, COS-1 and NIIH-3T3 after 48 h of continuous treatment with compound 1 (10 μM), 10C [cationic lipid control molecule not containing progesterone moiety]
(§2) Cytotoxicity assay of the different compounds were carried out by using 3-(4,5-dimethylthiazol-2-yl)-2,5-diphenyltetrazolium bromide (MTT). For this assay, 12-18 h before treatment cells were plated in 96-well plate at 5000 cells/well density. After incubation cells were treated continuously for 48 h with respective compounds at different concentration (2.5 μM-40 μM). After completion of the treatment, 10 μL of MTT solution (5 mg/mL) was added in each well and incubated for 4 h. Then the media was removed carefully, and the reduced MTT was dissolved in 1:1 (v/v) DMSO/Methanol and absorbance was measured using multimode reader (Synergy H1, BioTek). Results were represented as percentage of viability={[A550(treated cells)−background]/[A550(untreated cells)−background]}×100. The result was summarized and provided as IC50 table in Table 1.
(§3) For combination treatment effect, cells were plated in 96 well plates at 5000 cells/well. […] Following 48 h of treatment cell viability was measured following above mentioned MTT study.

Data set [2] has as its system cancer cells T47D, OVCAR-3, MDA-MB-231, MCF-7 and B16F10. Nature of the data set: MTT viability, all tested cancer cells (combination treatment study, FIG. 1A). The data set is classed as cell-based. Conditions: 48 h, 2.5 μM-40 μM. How it is done:
FIG. 1A: The viability studies of cancer cells T47D, OVCAR-3, MDA-MB-231, MCF-7 and B16F10 after 48 h of continuous treatment with compound 1 (10 μM), 10C [cationic lipid control molecule not containing progesterone moiety]
as §2, §3

For `CCCCCCCCCCCCCCCCCC[N+](C)(CCCCCCCCCCCCCCCCCC)CCNC(=O)CCC(=O)O[C@@H](C)[C@H]1CCC2C3CCC4=CC(=O)CC[C@]4(C)C3CC[C@@]21C` (stereo partly drawn) [Compound 6g, N-(2-(4-((1S)-1-((10R,13S,17S)-10,13-dimethyl-3-oxo-2,3,6,7,8,9,10,11,12,13,14,15,16,17-tetradecahydro-1H-cyclopenta[a]phenanthren-17-yl)ethoxy)-4-oxobutanamido)ethyl)-N-methyl-N-octadecyloctadecan-1-aminium chloride], the IC50 (usually the concentration that inhibits the measured activity by half) in the data set on B16F10 was above 15 µM; in the data set on T47D it was above 15 µM; in the data set on MCF7, above 15 µM; with NIH-3T3, above 20 µM; in the data set on OVCAR-3 it was above 15 µM; in the data set with COS-1 it was above 20 µM. In addition, the IC50 in the data set on CHO and in the data set with MDA-MB-231 was above 15 µM in each case.
On to `CCCCCCCCCCCCCC[N+](C)(CCCCCCCCCCCCCC)CCNC(=O)CCC(=O)O[C@@H](C)[C@H]1CCC2C3CCC4=CC(=O)CC[C@]4(C)C3CC[C@@]21C` (stereo partly drawn) [Compound 6e, N-(2-(4-((1S)-1-((10R,13S,17S)-10,13-dimethyl-3-oxo-2,3,6,7,8,9,10,11,12,13,14,15,16,17-tetradecahydro-1H-cyclopenta[a]phenanthren-17-yl)ethoxy)-4-oxobutanamido)ethyl)-N-methyl-N-tetradecyltetradecan-1-aminium chloride], for which the IC50 with B16F10 was above 15 µM; with T47D, above 15 µM; in the data set on MCF7, above 15 µM; with NIH-3T3, above 20 µM; with OVCAR-3 it was above 15 µM; in the data set with COS-1 it was above 20 µM. The IC50 in the data set with CHO and in the data set with MDA-MB-231 was above 15 µM throughout.
As to `CCCCCCCCCCCC[N+](C)(CCCCCCCCCCCC)CCNC(=O)CCC(=O)O[C@@H](C)[C@H]1CCC2C3CCC4=CC(=O)CC[C@]4(C)C3CC[C@@]21C.[Cl-]` (stereo partly drawn) [Compound 6d, N-(2-(4-((1S)-1-((10R,13S,17S)-10,13-dimethyl-3-oxo-2,3,6,7,8,9,10,11,12,13,14,15,16,17-tetradecahydro-1H-cyclopenta[a]phenanthren-17-yl)ethoxy)-4-oxobutanamido)ethyl)-N-dodecyl-N-methyldodecan-1-aminium chloride], in data set [1], the “toxicity towards tested non-cancer cells” value was “largely non-toxic”. The IC50 in the data set with B16F10 is 9.54 ± 0.18 µM; with T47D it was 12.8 ± 0.43 µM; in the data set on MCF7, 7.04 ± 0.28 µM; in the data set on NIH-3T3, above 20 µM; with OVCAR-3, 6.83 ± 0.13 µM; in the data set on COS-1, above 20 µM. Further, the IC50 with CHO worked out at 17.5 ± 0.18 µM; in the data set with MDA-MB-231, 6.36 ± 0.19 µM. Further, the “cell killing in all tested cancer cells” value in [2] is on record as “significant amount of cell killing”.
As to `CCCCCC[N+](C)(CCCCCC)CCNC(=O)CCC(=O)O[C@@H](C)[C@H]1CCC2C3CCC4=CC(=O)CC[C@]4(C)C3CC[C@@]21C` (stereo partly drawn) [Compound 6a, N-(2-(4-((1S)-1-((10R,13S,17S)-10,13-dimethyl-3-oxo-2,3,6,7,8,9,10,11,12,13,14,15,16,17-tetradecahydro-1H-cyclopenta[a]phenanthren-17-yl)ethoxy)-4-oxobutanamido)ethyl)-N-hexyl-N-methylhexan-1-aminium chloride], the IC50 in the data set with B16F10 is above 15 µM; in the data set with T47D it was 7.43 ± 0.76 µM; with MCF7 it was above 15 µM; in the data set on NIH-3T3 it was above 20 µM; with OVCAR-3, 13.9 ± 0.53 µM; in the data set with COS-1, above 20 µM. The IC50 with CHO was determined as 17.9 ± 0.56 µM; in the data set with MDA-MB-231 it was 5.78 ± 0.38 µM.
Consider `CCCCCCCCCCCCCCCC[N+](C)(CCCCCCCCCCCCCCCC)CCNC(=O)CCC(=O)O[C@@H](C)[C@H]1CCC2C3CCC4=CC(=O)CC[C@]4(C)C3CC[C@@]21C` (stereo partly drawn) [Compound 6f, N-(2-(4-((1S)-1-((10R,13S,17S)-10,13-dimethyl-3-oxo-2,3,6,7,8,9,10,11,12,13,14,15,16,17-tetradecahydro-1H-cyclopenta[a]phenanthren-17-yl)ethoxy)-4-oxobutanamido)ethyl)-N-hexadecyl-N-methylhexadecan-1-aminium chloride], for which the IC50 in the data set with B16F10 was above 15 µM; with T47D it was above 15 µM; with MCF7, above 15 µM; in the data set with NIH-3T3, above 20 µM; in the data set with OVCAR-3, above 15 µM; in the data set on COS-1, above 20 µM. In addition, the IC50 with CHO and in the data set on MDA-MB-231 was above 15 µM throughout.
For `CCCCCCCC[N+](C)(CCCCCCCC)CCNC(=O)CCC(=O)O[C@@H](C)[C@H]1CCC2C3CCC4=CC(=O)CC[C@]4(C)C3CC[C@@]21C.[Cl-]` (stereo partly drawn) [Compound 6b, N-(2-(4-((1S)-1-((10R,13S,17S)-10,13-dimethyl-3-oxo-2,3,6,7,8,9,10,11,12,13,14,15,16,17-tetradecahydro-1H-cyclopenta[a]phenanthren-17-yl)ethoxy)-4-oxobutanamido)ethyl)-N-methyl-N-octyloctan-1-aminium chloride], in data set [1], the “toxicity towards tested non-cancer cells” value was “largely non-toxic”. Moreover, the IC50 in the data set on B16F10 was 9.95 ± 0.32 µM; in the data set with T47D it was 4.07 ± 0.23 µM; in the data set on MCF7 it was 8.28 ± 0.12 µM; in the data set on NIH-3T3, above 20 µM; in the data set on OVCAR-3 it was 11.9 ± 0.45 µM; in the data set on COS-1, above 20 µM. Moreover, the values for the IC50 in the data set with CHO and in the data set with MDA-MB-231 were 17 ± 0.41 µM and 8.56 ± 0.52 µM, respectively. Besides, the “cell killing in all tested cancer cells” value in data set [2] is “significant amount of cell killing”.
